Experimental data as given in patent US20250345383A1, “INTRANASAL ADMINISTRATION OF POLYSULFIDE” (The General Hospital Corporation, priority 2022, published 2025).

What was measured:
MPTP-treated mice = experiment: MPTP-induced Parkinson's disease model in mice (tyrosine hydroxylase immunoblot); assay type: in vivo, mouse; conditions: GSSSG 50 mg/kg intranasal on day 0 and every 12 hours days 1-6; harvested 7 days after MPTP
Procedure: Intermittent H2S Inhalation—Sulfide Pre-Conditioning (SPC) We previously reported that breathing H2S at 80 ppm markedly increases plasma and brain levels of H2S and thiosulfate, an oxidative product of H2S.^50,51 Male C57BL6/J mice breathed air alone and air mixed with 80 ppm H2S (Airgas Inc., Radnor, PA) for 4 h each day for 5 consecutive days in custom-made plastic chambers. The H2S breathing session was performed from 8 AM until 12 PM from Day 1 through Day 5 as previously described^51 (FIG. 1). H2S concentration, as well as FiO2, was continuously measured using a portable gas monitor (VENTIS MX4 Multi-Gas Monitor, Industrial Scientific Corporation, Oakdale. PA).
Male C57BL6/J and CD-1 mice received four intraperitoneal injections of MPTP (20 mg/kg) or saline every 2 h for a total of four doses of MPTP (total, 80 mg/kg) or equivalent amount of saline, as previously described 3. […] Then, tyrosine hydroxylase protein levels were detected by immunoblotting.
To determine the effects of polysulfide on the loss of tyrosine hydroxylase in the substantia nigra and striatum in mice treated with MPTP, we administered GSSSG (50 mg/kg) or saline via intranasal route immediately after the first and the third injection of MPTP on Day 0. […] Then, tyrosine hydroxylase protein levels were detected by immunoblotting.

primary cortical neurons [1] = experiment: Relative sulfane sulfur levels in primary cortical neurons (SSip-1 DA); assay type: cell-based, mouse; conditions: incubation at 10 μM for 20 minutes; relative to untreated neurons
Procedure: Primary cortical neurons were isolated from the cerebral cortices of C57BL/6J mice of both sexes at embryonic day 15, as previously described 39. Primary cortical neurons were maintained at 37° C. in a humidified tissue culture chamber with 5% CO2 and cells were used on day 11 after harvest.
Primary cortical neurons or SH-SY5Y cells, a human neuroblastoma cell line (American Type Culture Collection, Manassas, VA, USA), were incubated with SSip-1 DA […] at 37° C. for 20 minutes in the dark. Cells were washed with pre-warmed HBSS containing calcium and magnesium (Thermo Fisher Scientific, Waltham, MA, USA) and then cells were incubated with GSSSG, sodium trisulfide (Na2S3; Dojindo Molecular Technologies, Inc., Rockville, MD, USA), PTN-SSS, or vehicle alone for 20 minutes at 37° C. in the dark. Fluorescence intensities were measured using a microplate reader.

mice subjected to SCI = experiment: Mouse model of spinal cord ischemia (SCI): delayed paraplegia, hindlimb motor function by Basso mouse scale (BMS); assay type: in vivo
Text: Adult C57BL/6J mice (12-18 weeks old) of both sexes were purchased from Jackson Laboratory (Bar Harbor, ME, USA). Both male and female mice were used in experiments to investigate the neuroprotective effect of GSSSG on motor function after SCI. […] All mice were housed in a temperature and humidity-controlled room in the animal center with a 12-hour light/dark cycle, and were provided with food and water ab libitum. To permit access by mice that were recovering from surgery, additional food pellets were inserted into hydrated gel placed on the bedding. A randomized paired design was used to minimize the variability between each treatment group. Mice were paired based on weight, age, delivery dates, and when possible, holding cages. After the pairing, mice were randomly assigned to different treatments.
The surgical procedures to produce delayed paraplegia in mice were performed as previously described^6 (FIG. 2A). Mice were anesthetized with 5% isoflurane in 100% O2 and tracheally intubated with a 20-gauge catheter (Angiocath; Becton Dickinson, Franklin Lakes, NJ, USA). […] The paravertebral muscle temperature was measured using a T-type implantable thermocouple probe (IT-18) and a T-type pod (ADInstruments, Colorado Springs, CO, USA). […] A median sternotomy extended from the apex of the manubrium to the second rib. The aortic arch was gently isolated between the left common carotid artery (LCCA) and the left subclavian artery (LSA), avoiding the vagus nerve and the left recurrent laryngeal nerve. […] After ischemia, the clips were removed in reverse order. Incisions were closed in layers and mechanical ventilation was discontinued. After stable spontaneous respiration was confirmed, mice were extubated.
The previously described surgical procedures^6 were modified as follows. The respiratory rate during the procedure was increased to 230 breaths/minute, because hyperventilation promotes the occurrence of delayed paraplegia caused by spinal cord ischemia^33. A laser Doppler perfusion monitor (moorVMS-LDF1; Moor Instruments, Millwey, UK) was used to monitor the femoral artery blood flow^28,29. […] To improve the accuracy of surgical procedures, a microscope (Leica MZ95; Leica Microsystems, Buffalo Grove, IL, USA) was used to isolate the aortic arch and place the clips.
Study drugs were administered intranasally using a single-channel pipettor. Mice were anesthetized with 3% isoflurane using a non-rebreathing circuit with a mouse nose cone (VetEquip, Inc., Livermore, CA, USA). While the drugs were administered, the nose cone was removed and mice were allowed to breathe air. Approximately 6 μL of each drug was administered into the mouse's nostrils and the mouse inhaled the droplets during inspiration. […]

primary cortical neurons [2] = experiment: Cell viability after oxygen and glucose deprivation/reoxygenation (OGD/R), primary cortical neurons; assay type: cell-based, mouse
Procedure: Primary cortical neurons were isolated from the cerebral cortices of C57BL/6J mice of both sexes at embryonic day 15, as previously described 39. Primary cortical neurons were maintained at 37° C. in a humidified tissue culture chamber with 5% CO2 and cells were used on day 11 after harvest. […] After reoxygenation, cell viability and cell injury were assessed using crystal violet and lactate dehydrogenase (LDH) assays, as previously described^39.

For `N[C@@H](CCC(=O)N[C@@H](CSSSC[C@H](NC(=O)CC[C@H](N)C(=O)O)C(=O)NCC(=O)O)C(=O)NCC(=O)O)C(=O)O` [GSSSG, glutathione trisulfide], the “tyrosine hydroxylase in the nigrostriatal region” value (MPTP-treated mice) was “prevented the MPTP-induced decrease in tyrosine hydroxylase”, the “levels of intracellular sulfane sulfur in primary cortical neurons” value (primary cortical neurons [1]) was “increased levels of intracellular sulfane sulfur” and the “male mice rescued from delayed paraplegia” value (mice subjected to SCI; GSSSG vs GSSG comparison, n=6 per group, intranasal GSSSG 50 mg/kg, GSSG 53 mg/kg) was 83%. The “mice in which development of delayed paraplegia was prevented” value (mice subjected to SCI; male mice, n=11 per group, intranasal at 0, 8, 23, 32 hours after surgery, GSSSG 50 mg/kg, GSH 45.2 mg/kg) was 73%, the “cell survival after OGD/R” value (primary cortical neurons [2]; GSSSG 100 μM) was “failed to improve cell survival” and the “release of LDH after OGD/R” value (primary cortical neurons [2]; GSSSG at 30 μM or 60 μM, vs vehicle-only treated cells) was “decreased release of LDH”. For the same compound, the “cell viability after OGD/R, crystal violet assay (GSSSG, GSH, GSSG comparison)” value (primary cortical neurons [2]; GSSSG at 30 μM, GSH at 60 μM, GSSG at 30 μM, vs vehicle-only treated cells) was “improved cell viability” and the “cell viability after OGD/R, crystal violet assay” value (primary cortical neurons [2]; GSSSG at 30 μM, vs vehicle-only treated cells) was “increased cell viability”.
